Test results taken from patent publication US20030176368A1, “Synthesis of epothilones, intermediates thereto and analogues thereof” (priority 2001, published 2003).
Read-outs that look alike come from different tables or passages of the source.

Key:
[1] = system: CCRF-CEM/VBL100; test: XTT cytotoxicity assay, vinblastine-resistant CCRF-CEM/VBL100 cells; assay type: cell-based, human; conditions: Homo sapiens, CCRF-CEM
Description: (§1) XTT assay following 72 h inhibition. CCRF-CEM is a human T-cell acute lymphoblastic leukemia cell line. The CCRF-CEM/VBL100, CCRF-CEM/VM1, and CCRF-CEM/Taxol cell lines all overexpress P-glycoprotein and display a multidrug resistance phenotype to MDR-associated oncolytics. (Chou et al. Proc. Natl. Acad. Sci. USA 98:8113, 2001; incorporated herein by reference).
(§2) A typical experiment invovles culturing cells (e.g., CCRF-CEM) at an initial density of 2-5×10^4 cells per ml. They are maintained in a 5% CO2-humidified atmosphere at 37° C. in RPMI medium 1640 (GIBCO/BRL) containing penicillin (100 units/ml), streptomycin (100 μg/ml) (GIBCO/BRL), and 5% heat-inactivated fetal bovine serum. For cells that were grown in suspension (such as CCRF-CEM and its sublines), cytotoxicitiy is measured by using the 2,-3-bis(2-methoxy-4-nitro-5-sulfophenyl)-5 carboxanilide)-2H terazodium hydroxide (XTT)-microculture tetrazonium method in duplicate in 96-well microtiter plates. For both methods, the absorbance of each well is measured with a microplate reader (EL-340, Bio-Tek, Burlington, Vt.). Each run entails six or seven concentrations of the tested drugs. Dose-effect relationship data are analyzed with the median-effect plot.
(§3) The CCRF-CEM human T cells, acute lymphoblastic leukemic cells, its teniposide-resistant subline (CCRF-CEM/VM1) and vinblastine-resistant subline (CCRF-CEM/VBL100) are obtained from W. T. Beck (University of Illinois, Chicago, Ill.).

[2] = system: human mammary carcinoma MX-1; test: Tumor xenograft in nude mice, 6 hr i.v. infusion; assay type: in vivo; conditions: as compared to control mice, MX-1 xenograft, listed as epothilone 490
Description: Athymic nude mice bearing the nu/nu gene are typically used for tumor xenografts. Outbred, Swiss-background mice were obtained from Charles River Laboratories. Male mice 8 weeks or older weighing 22 g and up were used for most experiments. The drug was administered via the tail vein for 6 hr.—i.v. infusion. Each individual mouse was confined in a perforated Falcon polypropylene tube restrainer for drug administration. Tumor volume was assessed by measuring length×width×height (or width) using a caliper. The programmable Harvard PHD2000 syringe pump (Harvard Apparatus) with multi-track was used for i.v. infusion. All animal studies were conducted in accordance with the guidelines of the National Institutes of Health “Guide for the Care and Use of Animals” and the protocol approved by the Memorial Sloan-Kettering Cancer Center's Institutional Animal Care and Use Committee. In keeping with the policy of this committee for the humane treatment of tumor-bearing animals, mice were euthanized when tumors reached ≧10% of their total body weight.
As depicted in FIGS. 14, 15, 16, and 17, Epo490 was tested in nude mice bearing human mammary carcinoma MX-1 following treatment with Epo490 or dEpoB (i.v. infusions for 6 hours). […] Tumor size and body weight were then measured using dosages of 30 mg/kg, 40 mg/kg or 50 mg/kg over 32 and 50 days.

[3] = system: CCRF-CEM; test: XTT cytotoxicity assay, CCRF-CEM cells; assay type: cell-based, human; conditions: for IC50: Homo sapiens, CCRF-CEM
Description: as §1, §2, §3

[4] = Stability on exposure to human plasma; assay type: in vitro ADME
Text: (§4) See Chou et al. Proc. Natl. Acad. Sci. USA 98:8113, 2001, incorporated herein by reference, for details.
(§5) However, the apparently disappointing murine in vivo results should be viewed in the context of reports that dEpoB itself evidenced a degree of bioinstability in murine plasma; yet had much longer plasma half-lives in higher organisms, including humans (Chou et al. J. Proc. Natl. Acad. Sci. USA 98:8113, 2001; incorporated herein by reference). The observed discrepancy in efficacy between mice and other mammals, including humans, has been ascribed to higher esterase levels in rodents.

[5] = system: CCRF-CEM/Taxol; test: XTT cytotoxicity assay, taxol-resistant CCRF-CEM/Taxol cells; assay type: cell-based, human; conditions: for IC50: Homo sapiens, CCRF-CEM
Description: as §1, §2

[6] = system: CCRF-CEM/VM1; test: XTT cytotoxicity assay, teniposide-resistant CCRF-CEM/VM1 cells; assay type: cell-based, human; conditions: Homo sapiens, CCRF-CEM
Description: as §1, §2, §3

[7] = system: tubulin; test: Tubulin binding: formation of microtubules in the presence of the compounds; assay type: biochemical
Text: Indeed, the microtubule stabilizing ability closely parallels the observed cytotoxicity data.

[8] = Stability on exposure to murine plasma; assay type: in vitro ADME; conditions: as compared to dEpoB (FIG. 21)
Text: as §4, §5

## CC1=C/C[C@@H](/C(C)=C/c2csc(C)n2)OC(=O)C[C@H](O)C(C)(C)C(=O)[C@H](C)[C@@H](O)[C@@H](C)C\C=C\1 [Epo490, 10,11-dehydro-12,13-desoxyepothilone B]
[1]; Example 5 Table 1, 72 h inhibition, read-out: In vitro Cytotoxicities (IC50) C/VBL100
  IC50: 91 nM
[1]; Example 9 table, read-out: Cell Growth Inhibition (IC50) CCRF-CEM/VBL
  IC50: 23 nM
[1]; Example 11 Table 2, XTT assay following 72-h inhibition, read-out: In Vitro Cytotoxicities (IC50) CCRF-CEM/VBL100
  IC50: 91 nM
[2]
  inhibitory effect on the growth of the implanted tumors: did not demonstrate a statistically significant inhibitory effect
[3]; Example 12, in words
  activity in CCRF-CEM cell lines: demonstrated activity
[3]; Example 5 Table 1, 72 h inhibition, read-out: In vitro Cytotoxicities (IC50) CCRF-CEM(C)
  IC50: 25 nM
[3]; Example 9 table, read-out: Cell Growth Inhibition (IC50) CCRF-CEM
  IC50: 9 nM
[3]; Example 11 Table 2, XTT assay following 72-h inhibition, read-out: In Vitro Cytotoxicities (IC50) CCRF-CEM
  IC50: 25 nM
[4]; FIG. 21 legend
  stability in human versus nude mice plasma: increased stability
[4]; after more than 3 hours of exposure in human plasma
  degradation in human plasma: no measurable degradation
[5]; Example 12, in words
  activity in CCRF-CEM cell lines resistant to Taxol: demonstrated activity
[5]; Example 5 Table 1, 72 h inhibition, read-out: In vitro Cytotoxicities (IC50) C/Taxol
  IC50: 32 nM
[5]; Example 9 table, read-out: Cell Growth Inhibition (IC50) CCRF-CEM/taxol
  IC50: 13 nM
[5]; Example 11 Table 2, XTT assay following 72-h inhibition, read-out: In Vitro Cytotoxicities (IC50) CCRF-CEM/TAXOL
  IC50: 32 nM
[6]; Example 5 Table 1, 72 h inhibition, read-out: In vitro Cytotoxicities (IC50) C/VM1
  IC50: 35 nM
[6]; Example 11 Table 2, XTT assay following 72-h inhibition, read-out: In Vitro Cytotoxicities (IC50) CCRF-CEM/VMI
  IC50: 35 nM
[7]; Example 5 Table 1
  % Tubulin Binding: 89%
[7]; Microtubules formed in the presence of dEpoB is defined as 100%
  % Tubulin Binding: 89%
[8]
  degradation in murine plasma: faster degradation
